# According to ChEMBL document CHEMBL1201862, “PubChem BioAssay data set” (2004):
# The source made the active and inactive calls.
# What was measured:
# [1] = target: T1, Neuropeptide Y receptor type 1 (Homo sapiens, UniProt P25929); type: functional;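 note: HEK293 cells with a CNG channel challenged with NPY then isoproterenol; potency as antagonist that reverses NPY suppression of cAMP signal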
# [2] = target: T2, Neuropeptide Y receptor type 2 (Homo sapiens, UniProt P49146); type: functional, cell-based;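 note: HEK293 cells expressing the receptor and a CNG channel; stimulus was NPY near EC95 followed by isoproterenol to raise cAMP; antagonist potency measured as restoring cAMP signal that NPY suppresses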
# [3] = tested on: HeLa; test: Cytotoxicity counterscreen assay for transcriptional activators of heat shock protein 70 (Hsp70). [Related pubchem assays: 1203, 1252 ]; type: functional; conditions: Homo sapiens;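 note: cells exposed to compound for 16 hours before readout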
# [4] = A High Throughput Confirmatory Assay used to Identify Novel Compounds that Inhibit Mycobacterium Tuberculosis in the absence of Glycerol.; type: functional
# [5] = target: T3, Delta-type opioid receptor (Homo sapiens, UniProt P41143); test: HTS Image-Based Screen for Antagonists of the DOR Receptor. [Related pubchem assays (depositor defined):AID1777, AID1785, AID1786, AID2133]; type: functional
# [6] = target: Mu-type opioid receptor (Homo sapiens, UniProt P35372); test: HTS Image-Based Screen for Agonists of the MOR Receptor. [Related pubchem assays (depositor defined):AID1777, AID1785, AID1786, AID2133]; type: functional;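 note: imaging of beta-arrestin GFP recruitment into spots after receptor activation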
# [7] = target: T2, Neuropeptide Y receptor type 2; test: NPY-Y2 antagonist potency, selectivity check, dose response, counter-screen for NPY-Y1 antagonist project, cell-based (AID 1278); type: functional
# [8] = target: T3, Delta-type opioid receptor; test: HTS Image-Based Screen for Agonists of the DOR Receptor. [Related pubchem assays (depositor defined):AID1777, AID1786, AID2133]; type: functional
# [9] = target: T1, Neuropeptide Y receptor type 1; test: NPY-Y1 receptor antagonist potency, dose response, cell-based (AID 1277); type: functional
# [10] = target: T4, Kappa-type opioid receptor (Homo sapiens, UniProt P41145); type: functional
# [11] = target: T4, Kappa-type opioid receptor; type: functional; remark: listed apart in the source
# T4 sequence (P41145 whole entry): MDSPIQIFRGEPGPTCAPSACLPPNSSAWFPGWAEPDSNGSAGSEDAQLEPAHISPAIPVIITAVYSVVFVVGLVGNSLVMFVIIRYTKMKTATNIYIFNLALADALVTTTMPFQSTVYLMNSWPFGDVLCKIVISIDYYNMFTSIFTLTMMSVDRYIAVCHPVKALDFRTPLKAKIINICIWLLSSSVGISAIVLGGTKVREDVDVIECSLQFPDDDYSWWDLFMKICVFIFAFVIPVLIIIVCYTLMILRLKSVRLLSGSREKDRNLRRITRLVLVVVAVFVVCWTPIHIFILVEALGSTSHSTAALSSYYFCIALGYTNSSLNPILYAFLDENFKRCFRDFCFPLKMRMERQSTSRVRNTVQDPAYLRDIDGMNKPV
# T1 sequence (P25929 whole entry): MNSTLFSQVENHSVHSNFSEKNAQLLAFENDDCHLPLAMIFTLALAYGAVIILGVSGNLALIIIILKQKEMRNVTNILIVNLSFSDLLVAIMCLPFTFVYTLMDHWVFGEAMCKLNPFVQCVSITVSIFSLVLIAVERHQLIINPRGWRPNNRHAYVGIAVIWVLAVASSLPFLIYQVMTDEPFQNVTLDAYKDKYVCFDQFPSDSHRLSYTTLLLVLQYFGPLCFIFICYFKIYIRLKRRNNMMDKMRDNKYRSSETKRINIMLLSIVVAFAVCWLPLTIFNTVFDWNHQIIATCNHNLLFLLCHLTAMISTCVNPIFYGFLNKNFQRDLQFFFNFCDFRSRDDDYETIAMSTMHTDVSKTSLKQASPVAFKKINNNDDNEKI
# T3 sequence (P41143 whole entry): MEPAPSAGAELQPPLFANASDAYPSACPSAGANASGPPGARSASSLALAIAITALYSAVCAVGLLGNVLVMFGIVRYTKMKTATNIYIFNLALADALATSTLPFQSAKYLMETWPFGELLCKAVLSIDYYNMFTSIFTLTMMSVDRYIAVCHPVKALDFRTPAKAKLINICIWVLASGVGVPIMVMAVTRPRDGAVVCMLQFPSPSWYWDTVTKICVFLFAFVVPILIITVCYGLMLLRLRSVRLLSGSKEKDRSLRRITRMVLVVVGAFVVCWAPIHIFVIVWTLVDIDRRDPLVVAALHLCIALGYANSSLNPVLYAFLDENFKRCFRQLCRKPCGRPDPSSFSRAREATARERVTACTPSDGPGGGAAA
# T2 sequence (P49146 whole entry): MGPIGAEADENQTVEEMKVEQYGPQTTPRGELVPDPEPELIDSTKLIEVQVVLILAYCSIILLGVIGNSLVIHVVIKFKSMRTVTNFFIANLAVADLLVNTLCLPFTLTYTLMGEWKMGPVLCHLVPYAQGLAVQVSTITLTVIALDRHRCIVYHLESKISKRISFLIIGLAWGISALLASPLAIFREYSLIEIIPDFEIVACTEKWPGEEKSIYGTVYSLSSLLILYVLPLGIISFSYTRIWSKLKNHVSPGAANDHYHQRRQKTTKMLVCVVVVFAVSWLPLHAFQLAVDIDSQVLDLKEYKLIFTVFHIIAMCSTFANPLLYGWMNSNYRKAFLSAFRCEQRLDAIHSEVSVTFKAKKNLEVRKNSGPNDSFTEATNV
# Chain of Mu-type opioid receptor (P35372 whole entry): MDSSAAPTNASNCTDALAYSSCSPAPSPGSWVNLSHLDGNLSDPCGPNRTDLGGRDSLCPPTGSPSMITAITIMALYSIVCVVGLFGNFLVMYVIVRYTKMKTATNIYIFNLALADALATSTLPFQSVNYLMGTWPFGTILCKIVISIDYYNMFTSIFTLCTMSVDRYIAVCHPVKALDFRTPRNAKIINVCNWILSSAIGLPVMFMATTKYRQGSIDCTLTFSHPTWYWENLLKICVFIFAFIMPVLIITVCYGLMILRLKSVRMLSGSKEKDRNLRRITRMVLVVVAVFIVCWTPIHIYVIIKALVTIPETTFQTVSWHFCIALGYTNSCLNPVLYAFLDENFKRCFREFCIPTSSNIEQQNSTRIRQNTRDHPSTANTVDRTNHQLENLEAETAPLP
structure (smiles),measurement,setting,value
CN1CCC(Oc2ccccc2Sc2ccccc2)CC1,IC50,[1],13.6 µM (not active)
same,IC50,[2],17.5 µM (not active)
CN(Cc1ccco1)C(=O)Cn1nc(-c2ccc(Cl)cc2)ccc1=O,CC50,[3],> 99 µM (not active)
Cc1ccc(S(=O)(=O)NCc2ccc(C(=O)NCCCN3CCC(Cc4ccccc4)CC3)cc2)cc1,IC50,[4],> 100 µM (active)
O=C(c1cnccn1)N(Cc1ccco1)C1(C(=O)NC2CCCCC2)CCCCC1,IC50,[5],> 32 µM (inactive)
same,EC50,[6],> 32 µM (inactive)
same,IC50,[7],> 35 µM (not active)
same,EC50,[8],> 32 µM (inactive)
same,IC50,[9],> 35 µM (not active)
same,EC50,[10],1.32 µM
same,EC50,[11],2.39 µM
